Test results published in publication PMC4337988 (Science (New York, N.Y.), 2014).

Columns and labels:
[1] = target: BsPyrR (Bacillus subtilis, UniProt P39765); assay: SEC-MALS; type: binding; settings: 50 mM Tris pH 7.5, 150 mM NaCl, 1 mM DTT, room temperature; allosteric
[2] = target: BcPyrR ([Bacillus] caldolyticus, UniProt P41007); assay: SEC-MALS; type: binding; settings: 50 mM Tris pH 7.5, 150 mM NaCl, 1 mM DTT, room temperature; allosteric
Chain of BcPyrR (P41007 whole entry): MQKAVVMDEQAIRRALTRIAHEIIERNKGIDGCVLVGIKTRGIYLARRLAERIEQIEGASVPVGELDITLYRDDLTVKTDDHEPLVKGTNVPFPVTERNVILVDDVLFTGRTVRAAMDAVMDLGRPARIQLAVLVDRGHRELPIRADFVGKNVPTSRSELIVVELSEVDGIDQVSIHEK

Chain of BsPyrR (P39765 whole entry): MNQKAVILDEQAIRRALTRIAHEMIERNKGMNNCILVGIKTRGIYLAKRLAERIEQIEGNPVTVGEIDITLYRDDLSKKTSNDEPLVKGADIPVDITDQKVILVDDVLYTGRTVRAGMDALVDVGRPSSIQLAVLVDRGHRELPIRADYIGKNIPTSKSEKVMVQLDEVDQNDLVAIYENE

Row | Structure (SMILES) | SEC-MALS (oligomeric state shift) [1] | SEC-MALS (oligomeric state shift) [2]
1 | O=c1ccn([C@@H]2O[C@H](COP(=O)(O)O)[C@@H](O)[C@H]2O)c(=O)[nH]1 [UMP] | both UMP and GMP stabilize the tetrameric state of PyrR | both UMP and GMP stabilize the tetrameric state of PyrR
2 | Nc1nc2c(ncn2[C@@H]2O[C@H](COP(=O)(O)O)[C@@H](O)[C@H]2O)c(=O)[nH]1 [GMP] |  | We analysed the oligomeric state of BsPyrR and BcPyrR by SEC-MALS upon addition of allosteric ligands
